The values that follow come from patent US10376555B2, “Identification of cyclic peptide agonists of galanin receptor 2 and 3 guided by spexin solution structure” (Hong Kong Baptist University, priority 2017, dated 2019).

Each structure is given as a SMILES string. Entries after “also recorded” stand apart in the source; their conditions may differ. Read-outs that look alike come from different tables or passages of the source. Positions of bridges follow the written chain, without caps; N, C: chain ends. Residues, ends and D or L forms follow the SMILES beside them.

The target of one data set is T1, hGalR1 (Homo sapiens, UniProt P47211).
T1 sequence (P47211 1-349): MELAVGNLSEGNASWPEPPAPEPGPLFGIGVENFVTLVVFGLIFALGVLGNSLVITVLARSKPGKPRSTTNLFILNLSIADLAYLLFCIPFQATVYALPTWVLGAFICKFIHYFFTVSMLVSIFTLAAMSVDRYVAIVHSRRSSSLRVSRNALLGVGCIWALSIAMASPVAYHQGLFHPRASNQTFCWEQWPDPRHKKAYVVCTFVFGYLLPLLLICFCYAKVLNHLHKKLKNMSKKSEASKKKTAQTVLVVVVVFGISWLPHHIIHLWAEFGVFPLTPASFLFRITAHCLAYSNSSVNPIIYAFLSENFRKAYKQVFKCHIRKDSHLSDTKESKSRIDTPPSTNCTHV
Nature of the data set: SRE-Luc receptor activation assay, hGalR1. In kind it is cell-based. The settings on record: for hGalR1 Emax: Relative to hGAL Emax.

The target in a further data set is T2, hGalR2 (Homo sapiens, UniProt O43603).
T2 construct: host or cells: HEK293
T2 sequence (O43603 1-387): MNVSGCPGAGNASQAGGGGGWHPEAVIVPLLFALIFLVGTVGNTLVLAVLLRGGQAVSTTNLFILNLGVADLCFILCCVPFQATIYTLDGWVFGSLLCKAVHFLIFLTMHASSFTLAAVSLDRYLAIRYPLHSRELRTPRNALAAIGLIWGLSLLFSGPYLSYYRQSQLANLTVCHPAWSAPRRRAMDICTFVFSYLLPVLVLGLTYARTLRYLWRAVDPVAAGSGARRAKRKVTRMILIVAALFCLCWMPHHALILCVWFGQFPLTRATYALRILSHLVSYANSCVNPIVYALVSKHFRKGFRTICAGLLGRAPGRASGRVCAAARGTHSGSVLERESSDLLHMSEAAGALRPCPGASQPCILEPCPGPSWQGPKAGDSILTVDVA
Nature of the data set: SRE-Luc receptor activation assay, hGalR2. In kind it is cell-based. The note with it: for hGalR2 Emax: Relative to hSPX Emax.

For another data set, the target named is T3, hGalR3 (Homo sapiens, UniProt O60755).
T3 construct: host or cells: HEK293
T3 sequence (O60755 1-368): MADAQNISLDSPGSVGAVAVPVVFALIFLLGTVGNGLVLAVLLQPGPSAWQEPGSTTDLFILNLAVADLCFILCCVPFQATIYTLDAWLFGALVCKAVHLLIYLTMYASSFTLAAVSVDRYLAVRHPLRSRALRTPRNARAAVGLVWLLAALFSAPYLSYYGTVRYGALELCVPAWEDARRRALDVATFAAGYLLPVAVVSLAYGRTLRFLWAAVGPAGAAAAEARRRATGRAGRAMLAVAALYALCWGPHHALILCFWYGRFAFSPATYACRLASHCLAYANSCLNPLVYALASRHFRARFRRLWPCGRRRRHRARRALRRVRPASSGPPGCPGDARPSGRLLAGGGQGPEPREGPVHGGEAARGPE
Nature of the data set: SRE-Luc receptor activation assay, hGalR3. In kind it is cell-based. The settings on record: for hGalR3 Emax: Relative to hSPX Emax.

Data set [1] can be described thus: In vitro serum stability assay (RP-HPLC). In kind it is in vitro ADME, rat. As for the experimental part: The serum stability of CSAs was tested using an in vitro assay followed by reverse-phase high-performance liquid chromatography (RP-HPLC) analysis (FIGS. 33-38).
750 μL RPMI medium 1640 (Thermo Fisher Scientific) was mixed with […] rat serum, and incubated at 37° C. for 15 min before adding peptide. The peptide dissolved in water was added into the reaction buffer to make a final concentration of 100 μg/mL. At each time point (5, 15, 30, 60, 120, 240, and 480 min), 100 μL reaction solution were taken, and mixed with 200 μL 6% trichloroacetic acid (TCA, Sigma-Aldrich). The resulting cloudy solution was cooled at 4° C. for 15 min, and centrifuged for 10 mins at 13,000 rpm. The supernatant was then analyzed by RP-HPLC. The extent of intact peptide was calculated based on the peak area and was normalized using a control sample.

Data set [2] has as its system C57BL/6J mice with high-fat-diet (HFD) induced obesity. Nature of the data set: Body weight gain in high-fat-diet induced obesity mice, LH101 (Ac) vs hSPX, 18 day treatment. In kind it is in vivo. The note with it: for food intake: recorded every 3 days. The method, then: Female and male C57BL/6J mice weighing 22-25 g were purchased from the Laboratory Animal Services Center, The Chinese University of Hong Kong, Hong Kong. The animals were fed with rodent diet with 60 kcal % fat (Research Diets, New Brunswick, N.J.) ad libitum with free access to water and were housed in rooms maintained at 22±1° C. with a 12 h light/dark cycle (lights on 6:00-18:00). Animals were constantly acclimated to the facility until the body weight reached no less than 30 g. Then all the diet-induced obese mice were divided into 3 groups randomly for the drug treatment. Mice body weight was daily monitored, and the food intake amount was recorded every 3 days. The Animal Ethics Committee of Hong Kong Baptist University approved all experimental protocols in accordance with “Institutional Guidelines and Animal Ordinance” from Department of Health, Hong Kong Special Administrative Region.

For data set [3], the system named is male mice (C57BL/6J) with diet-induced obesity (DIO). Description: Body weight gain in diet-induced obesity mice, LH101, 14-days-treatment. The settings on record: 25 μg/kg i.p., vs PBS controls. In kind it is in vivo. As for the experimental part:
Male mice (C57BL/6J) weighing about 22-25 g were purchased from the Laboratory Animal Services Center, The Chinese University of Hong Kong, Hong Kong. The animals were fed with a high fat diet (Research Diets, New Brunswick, N.J.) ad libitum with free access to water and were housed in rooms maintained at 22±1° C. with a 12 h light/dark cycle (lights on 6:00-18:00). Animals were constantly acclimated to the facility until the body weight reached 45-50 g. Then all the diet induced obese mice were divided into 2 groups randomly for the drug treatment. The Animal Ethics Committees of Hong Kong Baptist University, approved all experimental protocols, in accordance with “Institutional Guidelines and Animal Ordinance” from Department of Health, Hong Kong Special Administrative Region.

[4] abbreviates: HEK293 cells transfected with hGalR1, Gqi, SRE-Luc, 6 h treatment, full-dose.
[5] abbreviates: HEK293 cells transfected with hGalR2, Gqi, SRE-Luc, 6 h treatment, full-dose, read-out: hGalR2 EC50.
The mark [6] stands for this setting: HEK293 cells transfected with hGalR3, Gqi, SRE-Luc, 6 h treatment, full-dose, read-out: hGalR3 EC50.
[7] abbreviates: rat, serum, serum half-life (t1/2).

Regarding `CSCC[C@@H]1NC(=O)[C@H](C)NC(=O)[C@H](CCC(N)=O)NC(=O)[C@@H]2CCCN2C(=O)[C@H]([C@@H](C)O)NC(=O)[C@H](Cc2c[nH]c3ccccc23)NC(=O)[C@@H](NC(C)=O)CSSC[C@@H](C(=O)N[C@@H](CCC(N)=O)C(N)=O)NC(=O)CNC(=O)[C@H](CCCCN)NC(=O)[C@H](CC(C)C)NC(=O)[C@H](Cc2ccc(O)cc2)NC(=O)[C@H](CC(C)C)NC1=O` [LH101 (Ac)] (Ac-CWTPQAMLYLKGCQ-NH2; disulfide 1-13), on hGalR1 (setting [4]), the “hGalR1 EC50” value is recorded as “N.M”. In addition, at hGalR1, the “hGalR1 Emax” value is listed as “N.M”. The EC50 worked out at 0.38 µM on hGalR2 (setting [5]) and 0.39 µM on hGalR3 (setting [6]). The “hGalR2 Emax” value at hGalR2 is on record as 0.97. In addition, on hGalR3, the “hGalR3 Emax” value was found to be 1.00. The “fold enhancement of half-life” value in data set [1] (rat) was 29.1 fold. Moreover, the half-life at 100 μg/mL in data set [1] (rat, serum, half-life time in serum) is greater than 24 h; in data set [1] (setting [7]) it was 32.9 h. In addition, the body weight gain result in data set [2] (25 μg/kg i.p., 18 day treatment, vs PBS controls) was “significantly suppressed the body weight gain”. Also, the “area-under-curve (AUC) of body weight gain curve” value in data set [2] (18 day treatment) is reported as “significant body weight control efficacy”. In addition, the “time after which weight gain started to wane” value in data set [2] (18 day treatment) is given as 8 days. Besides, in data set [2], the food intake entry was “inhibitory effects on food consumption”.

As for `CSCC[C@@H]1NC(=O)[C@H](C)NC(=O)[C@H](CCC(N)=O)NC(=O)[C@@H]2CCCN2C(=O)[C@H]([C@@H](C)O)NC(=O)[C@H](Cc2c[nH]c3ccccc23)NC(=O)[C@@H](N)CSSC[C@@H](C(=O)N[C@@H](CCC(N)=O)C(N)=O)NC(=O)CNC(=O)[C@H](CCCCN)NC(=O)[C@H](CC(C)C)NC(=O)[C@H](Cc2ccc(O)cc2)NC(=O)[C@H](CC(C)C)NC1=O` [LH101] (H-CWTPQAMLYLKGCQ-NH2; disulfide 1-13), the “hGalR1 EC50” value at hGalR1 (setting [4]) is listed as “N.M”. The “hGalR1 Emax” value at hGalR1 is “N.M”. The figures for the EC50 on hGalR2 (setting [5]) and on hGalR3 (setting [6]) were 1.19 µM and 1.56 µM, respectively. On hGalR2, the “hGalR2 Emax” value turned out to be 1.09. Besides, the “hGalR3 Emax” value on hGalR3 is recorded as 1.04. The “fold enhancement of half-life” value in data set [1] (rat) amounted to 5.3 fold. Moreover, the amount remaining at 8 h, 100 μg/mL in data set [1] (rat, serum) is 46%. This compound also displayed a half-life at 100 μg/mL in data set [1] (setting [7]) of 5.93 h. Moreover, the body weight gain result in data set [3] is “significantly suppressed the body weight gain; also recorded: suppressed mice body weight gain; also recorded: does inhibit body weight gain”.

On to `CC(C)C[C@@H]1NC(=O)[C@H](CC(C)C)NC(=O)[C@H](Cc2ccc(O)cc2)NC(=O)CNC(=O)[C@H](C)NC(=O)[C@H](CO)NC(=O)[C@H](CC(N)=O)NC(=O)[C@H](CC(C)C)NC(=O)[C@H]([C@@H](C)O)NC(=O)[C@H](Cc2c[nH]c3ccccc23)NC(=O)[C@@H](N)CSSC[C@@H](C(=O)N[C@@H](Cc2c[nH]cn2)C(=O)N[C@@H](C)C(=O)N[C@H](C(N)=O)C(C)C)NC(=O)CNC1=O` [LH201] (H-CWTLNSAGYLLGCHAV-NH2; disulfide 1-13), for which, at hGalR1 (setting [4]), the EC50 is greater than 10 µM. For the same compound, the “hGalR1 Emax” value at hGalR1 is listed as 0.35. The “activity on GalR1, in words” value on hGalR1 (full-dose SRE-Luc) was “lost all activity on GalR1”. On hGalR2, the midpoint of the response, the EC50, lay at 0.12 µM and the “hGalR2 Emax” value is recorded as 1.00. Also, the “activity on GalR2, in words” value at hGalR2 (full-dose SRE-Luc) is listed as “kept full activity on GalR2”. In addition, on hGalR3, the concentration for a half-maximal effect (EC50) is greater than 10 µM and the “hGalR3 Emax” value is 0.55. In addition, the “activity on GalR3, in words” value at hGalR3 (full-dose SRE-Luc) is given as “only able to activate GalR3 at high doses”. Further, the half-life at 100 μg/mL in data set [1] (rat serum in RPMI 1640, 37° C., 100 μg/mL, read-out: serum half-life (t1/2)) is 2.82 h.

In the case of `CSCC[C@H](NC(=O)[C@H](C)NC(=O)[C@H](CCC(N)=O)NC(=O)[C@@H]1CCCN1C(=O)[C@@H](NC(=O)[C@H](Cc1c[nH]c2ccccc12)NC(=O)[C@@H](N)CC(N)=O)[C@@H](C)O)C(=O)N[C@@H](CC(C)C)C(=O)N[C@@H](Cc1ccc(O)cc1)C(=O)N[C@@H](CC(C)C)C(=O)N[C@@H](CCCCN)C(=O)NCC(=O)N[C@@H](C)C(=O)N[C@@H](CCC(N)=O)C(N)=O` [hSPX, reference compound], the “hGalR1 EC50” value at hGalR1 (setting [4]) is “N.M”. In addition, the “hGalR1 Emax” value at hGalR1 was “N.M”. Besides, the “hGalR2 Emax” value at hGalR2 stood at 1.00. In addition, the “hGalR3 Emax” value at hGalR3 came to 1.00. Also, the half-life at 100 μg/mL in data set [1] (setting [7]) worked out at 1.11 h. Moreover, in data set [2] (18 day treatment), the “area-under-curve (AUC) of body weight gain curve” value is recorded as “significant body weight control efficacy” and the “time after which weight gain started to wane” value was 10 days. In data set [2], the food intake result is reported as “inhibitory effects on food consumption”.
